{"source": "BindingDB's records for PubMed 11454918", "key": {"[1]": {"target": "Sodium-dependent dopamine transporter (Homo sapiens, UniProt Q01959)", "sequence (Q01959 whole entry)": "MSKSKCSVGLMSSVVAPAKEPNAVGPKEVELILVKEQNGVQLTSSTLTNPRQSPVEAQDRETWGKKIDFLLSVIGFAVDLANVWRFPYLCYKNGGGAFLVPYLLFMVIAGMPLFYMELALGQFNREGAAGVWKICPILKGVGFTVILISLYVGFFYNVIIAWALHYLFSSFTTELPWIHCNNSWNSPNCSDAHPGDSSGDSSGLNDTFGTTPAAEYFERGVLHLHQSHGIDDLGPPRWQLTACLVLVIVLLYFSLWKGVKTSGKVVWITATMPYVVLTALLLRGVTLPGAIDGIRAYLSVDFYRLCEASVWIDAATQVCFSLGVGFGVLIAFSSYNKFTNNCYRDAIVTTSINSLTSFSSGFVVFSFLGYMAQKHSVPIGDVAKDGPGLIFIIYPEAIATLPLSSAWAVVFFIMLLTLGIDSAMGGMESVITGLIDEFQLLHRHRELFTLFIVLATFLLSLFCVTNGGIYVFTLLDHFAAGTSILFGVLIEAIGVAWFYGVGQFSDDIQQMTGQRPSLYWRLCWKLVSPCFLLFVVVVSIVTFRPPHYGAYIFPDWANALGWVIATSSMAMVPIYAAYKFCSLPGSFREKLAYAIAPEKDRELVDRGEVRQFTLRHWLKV"}, "[2]": {"target": "T1, 5-hydroxytryptamine receptor 1A (Homo sapiens, UniProt P08908)", "T1 sequence (P08908 whole entry)": "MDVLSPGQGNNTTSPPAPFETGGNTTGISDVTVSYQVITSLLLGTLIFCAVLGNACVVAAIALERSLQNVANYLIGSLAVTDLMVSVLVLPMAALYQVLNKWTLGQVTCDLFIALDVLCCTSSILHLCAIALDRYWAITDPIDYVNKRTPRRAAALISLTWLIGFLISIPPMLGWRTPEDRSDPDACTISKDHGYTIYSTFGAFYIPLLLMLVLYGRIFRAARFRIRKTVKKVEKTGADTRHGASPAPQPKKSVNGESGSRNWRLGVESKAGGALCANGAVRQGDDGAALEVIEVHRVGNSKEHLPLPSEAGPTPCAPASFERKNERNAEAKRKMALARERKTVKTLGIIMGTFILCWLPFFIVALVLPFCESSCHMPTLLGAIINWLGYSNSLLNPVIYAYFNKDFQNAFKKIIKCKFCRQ"}, "[3]": {"target": "T2, 5-hydroxytryptamine receptor 2C (Homo sapiens, UniProt P28335)", "T2 sequence (P28335 whole entry)": "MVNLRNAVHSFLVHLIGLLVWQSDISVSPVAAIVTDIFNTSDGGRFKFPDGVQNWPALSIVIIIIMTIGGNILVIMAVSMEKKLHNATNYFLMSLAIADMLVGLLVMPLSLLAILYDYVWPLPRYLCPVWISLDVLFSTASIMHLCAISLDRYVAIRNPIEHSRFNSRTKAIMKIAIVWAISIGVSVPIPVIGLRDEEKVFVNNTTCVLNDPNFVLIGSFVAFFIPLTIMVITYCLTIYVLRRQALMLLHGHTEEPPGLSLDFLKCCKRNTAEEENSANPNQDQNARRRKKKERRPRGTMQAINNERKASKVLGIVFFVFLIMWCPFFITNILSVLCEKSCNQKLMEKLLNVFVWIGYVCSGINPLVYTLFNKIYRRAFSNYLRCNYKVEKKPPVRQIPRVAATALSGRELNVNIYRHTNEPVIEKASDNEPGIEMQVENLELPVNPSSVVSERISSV"}, "[4]": {"target": "5-hydroxytryptamine receptor 1B (Homo sapiens, UniProt P28222)", "sequence (P28222 whole entry)": "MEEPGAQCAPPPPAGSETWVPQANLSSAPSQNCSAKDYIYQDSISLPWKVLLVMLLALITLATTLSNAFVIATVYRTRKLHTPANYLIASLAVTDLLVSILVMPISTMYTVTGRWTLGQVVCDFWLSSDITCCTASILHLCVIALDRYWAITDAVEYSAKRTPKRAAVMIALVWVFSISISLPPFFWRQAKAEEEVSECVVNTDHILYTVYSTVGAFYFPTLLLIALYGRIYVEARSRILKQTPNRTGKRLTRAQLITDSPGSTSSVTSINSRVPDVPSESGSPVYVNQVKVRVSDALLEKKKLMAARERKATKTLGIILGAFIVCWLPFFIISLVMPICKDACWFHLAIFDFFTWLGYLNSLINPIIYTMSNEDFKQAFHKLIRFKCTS"}, "[5]": {"target": "5-hydroxytryptamine receptor 1D (Homo sapiens, UniProt P28221)", "sequence (P28221 whole entry)": "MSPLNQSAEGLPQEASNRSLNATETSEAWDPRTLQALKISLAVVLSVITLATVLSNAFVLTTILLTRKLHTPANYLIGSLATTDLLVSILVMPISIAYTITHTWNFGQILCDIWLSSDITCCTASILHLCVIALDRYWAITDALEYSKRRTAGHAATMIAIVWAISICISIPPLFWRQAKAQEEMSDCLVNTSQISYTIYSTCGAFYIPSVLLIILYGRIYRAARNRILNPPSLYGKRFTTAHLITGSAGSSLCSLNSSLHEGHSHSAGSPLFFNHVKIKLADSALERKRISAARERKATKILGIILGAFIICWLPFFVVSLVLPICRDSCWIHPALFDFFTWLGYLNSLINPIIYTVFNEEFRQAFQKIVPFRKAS"}, "[6]": {"target": "Sodium-dependent dopamine transporter (Rattus norvegicus, UniProt P23977)", "sequence (P23977 whole entry)": "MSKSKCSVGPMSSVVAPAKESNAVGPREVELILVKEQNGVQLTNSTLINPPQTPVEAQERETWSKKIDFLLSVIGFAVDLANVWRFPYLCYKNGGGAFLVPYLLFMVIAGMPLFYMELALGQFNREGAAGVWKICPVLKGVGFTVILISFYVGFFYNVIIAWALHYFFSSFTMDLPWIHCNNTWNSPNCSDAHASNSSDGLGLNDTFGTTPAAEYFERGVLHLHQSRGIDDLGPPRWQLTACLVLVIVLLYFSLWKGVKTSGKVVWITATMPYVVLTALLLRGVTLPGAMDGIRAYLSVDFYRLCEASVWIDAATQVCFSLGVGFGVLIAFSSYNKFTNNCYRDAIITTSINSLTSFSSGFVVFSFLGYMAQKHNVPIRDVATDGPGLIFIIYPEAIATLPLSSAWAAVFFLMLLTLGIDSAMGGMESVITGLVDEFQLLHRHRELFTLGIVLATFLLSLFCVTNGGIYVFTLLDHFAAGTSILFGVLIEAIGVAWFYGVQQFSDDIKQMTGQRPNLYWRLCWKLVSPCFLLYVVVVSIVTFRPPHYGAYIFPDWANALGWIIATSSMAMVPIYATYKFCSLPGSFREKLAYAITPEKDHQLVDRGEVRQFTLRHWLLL"}, "[7]": {"target": "T3, Alpha-2C adrenergic receptor (Rattus norvegicus, UniProt P22086)", "T3 sequence (P22086 whole entry)": "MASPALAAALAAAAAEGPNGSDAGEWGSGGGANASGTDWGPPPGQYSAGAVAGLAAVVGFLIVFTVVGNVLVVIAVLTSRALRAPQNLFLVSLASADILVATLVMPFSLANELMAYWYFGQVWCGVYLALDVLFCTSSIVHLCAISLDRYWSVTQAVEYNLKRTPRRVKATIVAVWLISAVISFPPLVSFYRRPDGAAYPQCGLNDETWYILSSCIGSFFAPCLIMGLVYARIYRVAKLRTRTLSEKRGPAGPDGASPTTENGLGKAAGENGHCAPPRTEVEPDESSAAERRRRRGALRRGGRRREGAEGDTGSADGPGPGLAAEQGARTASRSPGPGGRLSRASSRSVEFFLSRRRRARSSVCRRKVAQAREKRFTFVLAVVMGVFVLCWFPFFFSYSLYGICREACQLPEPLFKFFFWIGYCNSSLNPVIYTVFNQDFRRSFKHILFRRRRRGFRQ"}, "D(2) dopamine receptor": {"target": "D(2) dopamine receptor (Homo sapiens, UniProt P14416)", "sequence (P14416 whole entry)": "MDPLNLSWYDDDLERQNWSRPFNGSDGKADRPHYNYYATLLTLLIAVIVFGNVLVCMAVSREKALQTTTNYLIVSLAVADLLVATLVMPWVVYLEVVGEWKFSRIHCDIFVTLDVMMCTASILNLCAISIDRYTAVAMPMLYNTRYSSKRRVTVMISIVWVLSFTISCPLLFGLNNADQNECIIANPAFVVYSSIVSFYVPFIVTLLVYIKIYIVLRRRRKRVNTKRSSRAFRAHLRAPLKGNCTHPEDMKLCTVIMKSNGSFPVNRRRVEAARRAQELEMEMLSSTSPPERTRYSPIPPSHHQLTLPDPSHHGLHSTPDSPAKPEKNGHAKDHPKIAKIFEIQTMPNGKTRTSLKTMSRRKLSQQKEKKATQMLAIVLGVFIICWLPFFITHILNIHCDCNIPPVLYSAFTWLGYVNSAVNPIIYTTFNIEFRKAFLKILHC"}, "[8]": {"target": "T4, Alpha-1A adrenergic receptor (Homo sapiens, UniProt P35348)", "T4 sequence (P35348 whole entry)": "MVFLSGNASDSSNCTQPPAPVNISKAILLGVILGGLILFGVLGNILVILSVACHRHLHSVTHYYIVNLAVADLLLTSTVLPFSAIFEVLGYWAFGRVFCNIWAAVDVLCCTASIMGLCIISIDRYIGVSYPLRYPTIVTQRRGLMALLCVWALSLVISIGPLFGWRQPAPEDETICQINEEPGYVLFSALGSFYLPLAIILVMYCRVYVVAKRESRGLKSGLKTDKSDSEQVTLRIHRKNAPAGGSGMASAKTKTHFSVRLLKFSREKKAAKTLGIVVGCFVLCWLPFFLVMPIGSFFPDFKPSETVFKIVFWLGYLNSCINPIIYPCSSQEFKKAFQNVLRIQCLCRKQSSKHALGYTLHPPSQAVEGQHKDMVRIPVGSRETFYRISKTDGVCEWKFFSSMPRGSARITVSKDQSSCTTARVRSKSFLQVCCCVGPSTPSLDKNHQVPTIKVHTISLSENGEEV"}, "[9]": {"target": "T5, Alpha-2A adrenergic receptor (Homo sapiens, UniProt P08913)", "T5 sequence (P08913 whole entry)": "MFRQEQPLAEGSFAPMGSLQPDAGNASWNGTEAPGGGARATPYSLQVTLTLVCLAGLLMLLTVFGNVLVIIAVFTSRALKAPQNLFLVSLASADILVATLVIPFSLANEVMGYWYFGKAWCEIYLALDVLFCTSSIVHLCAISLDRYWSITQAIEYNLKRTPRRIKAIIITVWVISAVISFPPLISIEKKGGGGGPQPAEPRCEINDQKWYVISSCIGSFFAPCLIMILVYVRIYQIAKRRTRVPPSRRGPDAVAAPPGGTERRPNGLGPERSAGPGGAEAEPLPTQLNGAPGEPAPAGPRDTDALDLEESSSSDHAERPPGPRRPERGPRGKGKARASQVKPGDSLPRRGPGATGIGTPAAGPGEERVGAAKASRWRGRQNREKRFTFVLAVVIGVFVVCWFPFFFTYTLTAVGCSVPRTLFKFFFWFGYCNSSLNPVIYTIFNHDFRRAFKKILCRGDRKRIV"}, "[10]": {"target": "T6, Alpha-1A adrenergic receptor (Rattus norvegicus, UniProt P43140)", "T6 sequence (P43140 whole entry)": "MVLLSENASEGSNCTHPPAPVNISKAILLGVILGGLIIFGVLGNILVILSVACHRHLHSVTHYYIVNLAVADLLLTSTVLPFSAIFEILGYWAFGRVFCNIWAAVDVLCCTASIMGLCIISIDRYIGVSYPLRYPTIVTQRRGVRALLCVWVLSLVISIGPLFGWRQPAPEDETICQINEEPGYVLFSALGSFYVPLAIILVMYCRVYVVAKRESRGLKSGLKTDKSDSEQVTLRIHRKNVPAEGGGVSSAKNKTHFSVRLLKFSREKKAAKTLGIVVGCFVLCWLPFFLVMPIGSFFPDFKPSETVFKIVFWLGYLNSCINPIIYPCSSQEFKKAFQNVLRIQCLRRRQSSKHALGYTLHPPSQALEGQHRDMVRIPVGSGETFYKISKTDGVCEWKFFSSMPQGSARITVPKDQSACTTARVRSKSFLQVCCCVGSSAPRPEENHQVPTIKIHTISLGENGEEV"}, "[11]": {"target": "Sodium-dependent noradrenaline transporter (Homo sapiens, UniProt P23975)", "sequence (P23975 whole entry)": "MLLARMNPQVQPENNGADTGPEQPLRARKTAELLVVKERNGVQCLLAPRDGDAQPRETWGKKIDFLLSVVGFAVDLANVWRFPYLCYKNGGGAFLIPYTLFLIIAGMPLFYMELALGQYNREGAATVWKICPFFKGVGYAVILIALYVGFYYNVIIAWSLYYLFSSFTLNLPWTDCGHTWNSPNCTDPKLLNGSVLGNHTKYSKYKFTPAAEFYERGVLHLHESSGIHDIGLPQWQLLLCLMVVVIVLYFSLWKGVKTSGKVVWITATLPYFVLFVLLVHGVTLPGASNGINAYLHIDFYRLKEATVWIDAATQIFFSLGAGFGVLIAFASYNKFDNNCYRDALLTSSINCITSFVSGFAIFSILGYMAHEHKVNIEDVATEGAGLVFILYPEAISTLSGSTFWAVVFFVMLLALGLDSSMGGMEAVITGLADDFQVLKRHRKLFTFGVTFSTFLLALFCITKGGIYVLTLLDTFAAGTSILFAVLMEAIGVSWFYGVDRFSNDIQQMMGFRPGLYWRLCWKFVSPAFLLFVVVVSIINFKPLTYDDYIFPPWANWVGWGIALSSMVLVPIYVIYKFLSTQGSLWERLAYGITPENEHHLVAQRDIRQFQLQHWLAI"}, "[12]": {"target": "Norepinephrine transporter (Rattus norvegicus, UniProt Q9JIA2)"}, "[13]": {"target": "Sodium-dependent serotonin transporter (Rattus norvegicus, UniProt P31652)", "sequence (P31652 whole entry)": "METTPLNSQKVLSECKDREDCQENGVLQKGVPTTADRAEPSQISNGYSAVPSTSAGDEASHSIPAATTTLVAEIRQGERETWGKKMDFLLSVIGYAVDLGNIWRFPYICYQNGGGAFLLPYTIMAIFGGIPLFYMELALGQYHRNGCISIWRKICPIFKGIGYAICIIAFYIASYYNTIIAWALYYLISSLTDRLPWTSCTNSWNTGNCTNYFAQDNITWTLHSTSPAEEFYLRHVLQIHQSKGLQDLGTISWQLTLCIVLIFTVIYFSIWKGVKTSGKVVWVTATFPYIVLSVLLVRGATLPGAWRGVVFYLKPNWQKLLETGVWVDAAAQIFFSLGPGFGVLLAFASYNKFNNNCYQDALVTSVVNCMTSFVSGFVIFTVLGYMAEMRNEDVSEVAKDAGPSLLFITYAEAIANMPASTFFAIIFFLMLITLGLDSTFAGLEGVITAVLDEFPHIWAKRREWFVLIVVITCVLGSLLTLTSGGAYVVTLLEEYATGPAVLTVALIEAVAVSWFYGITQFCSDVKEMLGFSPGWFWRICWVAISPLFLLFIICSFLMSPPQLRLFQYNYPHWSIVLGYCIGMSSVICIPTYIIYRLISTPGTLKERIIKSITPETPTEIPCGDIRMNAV"}}, "note": "Counter-ions that a name gives are not always drawn.", "data": [{"smiles": "CN(C)CCCN1c2ccccc2CCc2ccc(Cl)cc21", "note": "[CLOMIPRAMINE HYDROCHLORIDE]", "values": [{"measurement": "Ki", "setting": "[1]", "value": 3.02, "unit": "µM"}, {"measurement": "Ki", "setting": "[2]", "value": "> 10", "unit": "µM"}, {"measurement": "Ki", "setting": "[3]", "value": 0.0646, "unit": "µM"}, {"measurement": "Ki", "setting": "[4]", "value": "> 10", "unit": "µM"}, {"measurement": "Ki", "setting": "[5]", "value": "> 10", "unit": "µM"}, {"measurement": "Ki", "setting": "[6]", "value": 1.23, "unit": "µM"}, {"measurement": "Ki", "setting": "[7]", "value": "> 10", "unit": "µM"}, {"measurement": "Ki", "setting": "D(2) dopamine receptor", "value": 0.0776, "unit": "µM"}, {"measurement": "Ki", "setting": "[8]", "value": 0.0032, "unit": "µM"}, {"measurement": "Ki", "setting": "[9]", "value": 0.525, "unit": "µM"}]}, {"smiles": "COc1ccc(C(CN(C)C)C2(O)CCCCC2)cc1", "note": "(configuration not stated) [NSC_62923]", "values": [{"measurement": "Ki", "setting": "[2]", "value": "> 10", "unit": "µM"}, {"measurement": "Ki", "setting": "[3]", "value": "> 10", "unit": "µM"}, {"measurement": "Ki", "setting": "[5]", "value": "> 10", "unit": "µM"}, {"measurement": "Ki", "setting": "[7]", "value": "> 10", "unit": "µM"}, {"measurement": "Ki", "setting": "D(2) dopamine receptor", "value": "> 10", "unit": "µM"}, {"measurement": "Ki", "setting": "[8]", "value": "> 10", "unit": "µM"}, {"measurement": "Ki", "setting": "[9]", "value": "> 10", "unit": "µM"}]}, {"smiles": "COc1ccc2c(c1)C(CN(C)C)(C1(O)CCCCC1)C2", "note": "(configuration not stated) [S33005]", "values": [{"measurement": "Ki", "setting": "[1]", "value": "> 10", "unit": "µM"}, {"measurement": "Ki", "setting": "[2]", "value": "> 10", "unit": "µM"}, {"measurement": "Ki", "setting": "[10]", "value": "> 10", "unit": "µM"}, {"measurement": "Ki", "setting": "[3]", "value": "> 10", "unit": "µM"}, {"measurement": "Ki", "setting": "[4]", "value": "> 10", "unit": "µM"}, {"measurement": "Ki", "setting": "[5]", "value": "> 10", "unit": "µM"}, {"measurement": "Ki", "setting": "[6]", "value": "> 10", "unit": "µM"}, {"measurement": "Ki", "setting": "[11]", "value": 1.51, "unit": "µM"}, {"measurement": "Ki", "setting": "[12]", "value": 0.178, "unit": "µM"}, {"measurement": "Ki", "setting": "[7]", "value": "> 10", "unit": "µM"}, {"measurement": "Ki", "setting": "D(2) dopamine receptor", "value": "> 10", "unit": "µM"}, {"measurement": "Ki", "setting": "[13]", "value": 0.00195, "unit": "µM"}, {"measurement": "Ki", "setting": "[8]", "value": "> 10", "unit": "µM"}, {"measurement": "Ki", "setting": "[9]", "value": "> 10", "unit": "µM"}]}, {"smiles": "CN(C)CCCC1(c2ccc(F)cc2)OCc2cc(C#N)ccc21", "note": "(configuration not stated)", "values": [{"measurement": "Ki", "setting": "[2]", "value": "> 10", "unit": "µM"}, {"measurement": "Ki", "setting": "[10]", "value": "> 10", "unit": "µM"}, {"measurement": "Ki", "setting": "[4]", "value": "> 10", "unit": "µM"}, {"measurement": "Ki", "setting": "[5]", "value": "> 10", "unit": "µM"}, {"measurement": "Ki", "setting": "[7]", "value": "> 10", "unit": "µM"}, {"measurement": "Ki", "setting": "[9]", "value": "> 10", "unit": "µM"}]}]}
